Experimental data as given in patent US20250314869A1, “SYSTEMS AND METHODS FOR HIGH THROUGHPUT SINGLE MOLECULE TRACKING IN LIVING CELLS” (EIKON THERAPEUTICS, INC., priority 2022, published 2025).
Entries after “also recorded” stand apart in the source; their conditions may differ. Read-outs that look alike come from different tables or passages of the source.

How the values were obtained:
Estrogen Receptor (ER) [1] = molecular target: T1, Estrogen Receptor (ER) (Homo sapiens, UniProt P03372); test: htSMT of Halo-ER in U2OS cells (fbound, Dfree); assay type: cell-based; conditions: for change in ER fbound: follow-up of selected compounds
T1 construct: expressed in transfected cells
T1 sequence (P03372 1-595): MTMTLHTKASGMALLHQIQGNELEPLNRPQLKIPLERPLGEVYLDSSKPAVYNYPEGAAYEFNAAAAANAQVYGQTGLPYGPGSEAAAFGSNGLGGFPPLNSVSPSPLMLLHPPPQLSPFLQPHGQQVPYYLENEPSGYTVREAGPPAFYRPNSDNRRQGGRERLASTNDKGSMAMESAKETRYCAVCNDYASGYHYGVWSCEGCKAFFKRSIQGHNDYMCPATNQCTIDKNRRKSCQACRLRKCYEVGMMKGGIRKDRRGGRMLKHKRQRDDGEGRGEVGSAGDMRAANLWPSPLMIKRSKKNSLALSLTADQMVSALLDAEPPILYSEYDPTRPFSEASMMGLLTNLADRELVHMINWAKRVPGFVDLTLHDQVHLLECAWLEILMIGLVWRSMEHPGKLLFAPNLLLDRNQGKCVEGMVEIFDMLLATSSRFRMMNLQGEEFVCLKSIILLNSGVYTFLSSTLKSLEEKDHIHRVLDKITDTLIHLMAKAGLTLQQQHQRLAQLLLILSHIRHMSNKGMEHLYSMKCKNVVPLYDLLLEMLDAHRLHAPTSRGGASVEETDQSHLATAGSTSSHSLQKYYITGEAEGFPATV

[2] = molecular target: T2, glucocorticoid receptor (GR) (Homo sapiens, UniProt P04150); test: htSMT of Halo-GR in U2OS cells; assay type: cell-based; conditions: 1 μM antagonist, singly or with cognate agonist
T2 construct: Because U2OS cells express GR endogenously; endogenous in cells; host or cells: U2OS, CRISPR/Cas9 knock-in at the endogenous NR3C1 locus
T2 sequence (P04150 1-777): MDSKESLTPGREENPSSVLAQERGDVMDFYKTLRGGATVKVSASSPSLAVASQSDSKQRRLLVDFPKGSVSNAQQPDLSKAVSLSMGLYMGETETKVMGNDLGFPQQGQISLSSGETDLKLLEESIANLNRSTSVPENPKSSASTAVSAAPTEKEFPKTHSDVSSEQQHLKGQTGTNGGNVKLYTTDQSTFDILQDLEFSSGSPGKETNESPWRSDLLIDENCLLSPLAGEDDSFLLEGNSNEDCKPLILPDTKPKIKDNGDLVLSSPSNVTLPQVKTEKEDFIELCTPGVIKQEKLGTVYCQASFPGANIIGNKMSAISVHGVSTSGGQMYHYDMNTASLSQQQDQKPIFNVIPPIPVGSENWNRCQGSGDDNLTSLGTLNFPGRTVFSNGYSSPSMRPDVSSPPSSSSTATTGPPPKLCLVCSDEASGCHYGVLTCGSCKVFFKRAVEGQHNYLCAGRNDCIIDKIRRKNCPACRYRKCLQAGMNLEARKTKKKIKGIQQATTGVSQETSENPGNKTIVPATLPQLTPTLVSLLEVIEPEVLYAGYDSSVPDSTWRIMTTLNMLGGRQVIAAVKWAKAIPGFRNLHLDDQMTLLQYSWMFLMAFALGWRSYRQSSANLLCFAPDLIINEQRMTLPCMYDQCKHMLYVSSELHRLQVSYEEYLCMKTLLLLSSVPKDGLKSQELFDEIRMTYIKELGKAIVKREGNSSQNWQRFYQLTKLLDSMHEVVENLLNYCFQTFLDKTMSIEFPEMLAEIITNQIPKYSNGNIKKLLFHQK
From the text: Where appropriate, compounds were serially diluted in an Echo Qualified 384-Well Low Dead Volume Source Microplate (0018544, Beckman Coulter) to generate dose-titration source material.

androgen receptor (AR) = androgen receptor (AR) (Homo sapiens, UniProt P10275)
Chain of androgen receptor (AR) (P10275 whole entry): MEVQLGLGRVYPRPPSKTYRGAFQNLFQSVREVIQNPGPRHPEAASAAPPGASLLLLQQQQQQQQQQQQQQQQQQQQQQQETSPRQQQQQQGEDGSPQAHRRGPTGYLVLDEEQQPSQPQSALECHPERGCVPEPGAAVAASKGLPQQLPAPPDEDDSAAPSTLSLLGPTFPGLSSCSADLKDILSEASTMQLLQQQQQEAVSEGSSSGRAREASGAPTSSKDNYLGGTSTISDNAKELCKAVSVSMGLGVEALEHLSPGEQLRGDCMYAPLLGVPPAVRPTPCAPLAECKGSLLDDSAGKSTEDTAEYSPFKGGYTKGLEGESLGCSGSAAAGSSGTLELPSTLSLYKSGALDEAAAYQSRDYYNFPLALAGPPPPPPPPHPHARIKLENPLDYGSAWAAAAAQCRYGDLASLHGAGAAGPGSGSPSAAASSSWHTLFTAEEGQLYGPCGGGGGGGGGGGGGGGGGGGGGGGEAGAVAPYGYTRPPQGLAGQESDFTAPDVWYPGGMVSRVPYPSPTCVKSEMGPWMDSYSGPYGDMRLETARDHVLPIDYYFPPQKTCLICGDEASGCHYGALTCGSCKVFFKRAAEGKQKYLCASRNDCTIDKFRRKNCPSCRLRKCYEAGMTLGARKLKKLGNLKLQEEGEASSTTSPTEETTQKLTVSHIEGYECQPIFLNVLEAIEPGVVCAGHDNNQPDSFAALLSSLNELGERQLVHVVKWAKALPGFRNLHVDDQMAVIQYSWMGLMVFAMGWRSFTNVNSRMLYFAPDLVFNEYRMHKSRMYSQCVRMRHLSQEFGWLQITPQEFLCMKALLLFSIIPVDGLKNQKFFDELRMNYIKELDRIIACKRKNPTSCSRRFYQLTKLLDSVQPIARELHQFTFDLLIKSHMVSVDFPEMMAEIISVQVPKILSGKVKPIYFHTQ

Estrogen Receptor (ER) [3] = molecular target: T1, Estrogen Receptor (ER); test: kinetic SMT (kSMT) of ER after compound addition; assay type: cell-based; conditions: 100 nM compound
Estrogen Receptor (ER) [4] = molecular target: T1, Estrogen Receptor (ER); test: residence time imaging of ER-Halo (track length); assay type: cell-based; conditions: versus DMSO, 100 nM HSP90 inhibition
ER = ER (Homo sapiens, UniProt P03372); test: western blot of ER after 24 hours treatment; assay type: cell-based; conditions: 24 hours prior to lysis; MCF7, T47d, U2OS ER-HaloTag
Method: Cells were grown in the same conditions as described previously. […] Cells are lysed in 200 μL 1× Cell Lysis Buffer (catalogue number 9803, Cell Signaling). Protein lysate concentration is then determined using BCA protein assay kit (Catalog number 23225, Pierce™ BCA Protein Assay Kit) following manufacturer instructions. Capillary Western Immunoassay were performed using Jess Protein Simple following manufacturer's instruction (protein simple, USA). Levels of αER (1:100, RM-9101) were normalized to loading control β-tubulin (1:100, NC0244815 LI-COR 92642213, Thermo Fisher). The peaks were analyzed with the Compass software (Protein Simple, USA).

Row | Compound | change in ER fbound (Estrogen Receptor (ER) [1]) | time at which overall effect on fbound reached a plateau (Estrogen Receptor (ER) [3]) | decrease in total number of long binding events (Estrogen Receptor (ER) [4]) | other results
1 | 4-hydroxytamoxifen |  |  |  | change in ER fbound in bioactive screen (Estrogen Receptor (ER) [1]): significantly increased fbound; maximal increase in ER fbound (Estrogen Receptor (ER) [1]): lower maximal increases in fbound
2 | CN(C)c1ccc(C(c2ccc(N(C)C)cc2)c2cc([N+](=O)[O-])ccc2Cl)cc1 [AL082D06] |  |  |  | GR chromatin binding (fbound) [2]: decrease in chromatin binding
3 | CC(O)c1cc(C(=O)N[C@@H](C)Cn2ccc(-c3ccc(C#N)c(Cl)c3)n2)[nH]n1 (stereo partly drawn) [Darolutamide] |  |  |  | AR fbound / chromatin binding (androgen receptor (AR)): decrease in chromatin binding
4 | COc1cccc(-c2cc(F)ccc2[C@H]2Cc3nc(N)nc(C)c3C(=O)N2)n1 [HSP990] | increase in fbound | plateau after an hour | two | 
5 | C[C@]12CC[C@@H]3c4ccc(O)cc4C[C@@H](CCCCCCCCC[S+]([O-])CCCC(F)(F)C(F)(F)F)[C@H]3[C@@H]1CC[C@@H]2O (stereo partly drawn) [fulvestrant] |  |  |  | change in ER fbound in bioactive screen (Estrogen Receptor (ER) [1]; 1 μM compound versus DMSO): increase in fbound; also recorded: significantly increased fbound; ER degradation (western blot) (ER): degradation of ER
6 | CC(C)c1cc(-c2n[nH]c(=O)n2-c2ccc3c(ccn3C)c2)c(O)cc1O [ganetespib] | increase in fbound | plateau after an hour | four | 
